From PMC2921341, “Interaction of Serum- and Glucocorticoid Regulated Kinase 1 (SGK1) with the WW-Domains of Nedd4-2 Is Required for Epithelial Sodium Channel Regulation” (PLoS ONE, 2010)

Tested on: SGK
Test: GST pulldown of SGK from COS7 lysate with WW-domain GST fusion proteins
Type: binding, human
Conditions: GST fusion on glutathione-Sepharose, COS7 lysate with SGK-FLAG or ΔN60SGK-HA, 3 h at 4°C, western blot, n = 7
Method: In order to better understand the molecular nature of the interaction between Nedd4-2 and SGK, in vitro GST pulldown studies were performed. […] Individual WW-domains of Nedd4-2 or Nedd4, or combinations of Nedd4-2 WW-domains, were expressed as GST fusion proteins and purified on glutathione-Sepharose beads. Lysates of COS7 cells expressing SGK or ΔN60-SGK (both SGK constructs gave the same results) were incubated with the WW-domain fusion proteins or GST alone. Bound SGK was detected by western blotting with anti-FLAG/HA.
pGEX-KG containing the cDNA of WW-domains of Nedd4 and Nedd4-2 or the empty vector were transformed into Escherichia coli strain BL21, and expression of the WW-domains-GST fusion protein or GST alone was induced with 0.5 µM isopropyl-D-1-thiogalactopyranoside for 3 h at 37°C. Bacteria were lysed using BugBuster (Novagen, Merck KGaA, Darmstadt, Germany), and the GST fusion proteins were purified on glutathione-Sepharose beads (GE Healthcare, Little Chalfont, Bucks, U.K.). COS7 cells were transiently transfected with pMT3 containing SGK/SGKS422D-FLAG or ΔN60SGK-HA. […] The glutathione-Sepharose beads, along with the fusion proteins and any binding proteins, were collected by centrifugation (1 min, 16,000 g), washed extensively in T-TBS and analyzed by SDS-PAGE and Western blotting using anti-FLAG antibody. Resulting X-ray films were analyzed densitometrically.

Row | Substance | binding to SGK in GST pulldown (in words)
1 | Nedd4 WW1: WW-domain 1 of Nedd4, GST fusion (SPLPPGWEERQDILGRTYYVNHESRRTQWKRPTP; left off: GST, end not stated, kept) | interact with SGK
2 | Nedd4 WW3: WW-domain 3 of Nedd4 (GFLPKGWEVRHAPNGRPFFIDHNTKTTTWEDPRL; left off: GST, end not stated, cleaved) | interact with SGK
